Source: patent publication US9572315B2, “ALS inhibitor herbicide tolerant B. napus mutants” (BAYER INTELLECTUAL PROPERTY GMBH, priority 2011, dated 2017)

Assays:
[1] = tested on: B. napus mutant FM 202 (ALS I A190V, ALS III W556L); assay: ALS-inhibitor herbicide injury on B. napus, greenhouse spray trial, visual scoring; assay type: in vivo, Brassica napus
Protocol: (§1) The individual components herbicide and surfactant with regard to type and application rate as stated in table I were added with stirring to a water application rate of 300 l/ha so that a homogeneous spray mixture was formed.
(§2) Seeds of B. napus were sown in a sandy loam soil and placed in a climate chamber in a greenhouse under good growth conditions (16 h light, temperature day 14° C., night: 8° C.). The plants were grown up to growth stage of BBCH 12 to BBCH 13. […] After the treatment, the plants were returned to the climate chamber.
(§3) Visual scoring was carried out using a percentage scale of 0%=no damage to 100%=all plants dead.

[2] = tested on: B. napus wild type line SR002201 (NCIMB 41813); assay: as above; assay type: in vivo, Brassica napus
Protocol: as §1, §2, §3

[3] = tested on: plants regenerated from the clone FM202; assay: Growth of regenerated plants in presence of herbicide; assay type: cell-based, Brassica napus; settings: high concentration of ALS inhibitor (selection at 10^−4 M)
[4] = tested on: B. napus plants of the present invention; assay: Sensitivity to ALS inhibitor herbicide compared to wild type; parameters: species or system Brassica napus; settings: B. napus plant described in the Examples vs wild type
[5] = Brassica napus, 336 h, 30 g a.i./ha, spray at BBCH 12-13 with Mero 1 l/ha, visual scoring 14 days after application, 0%=no damage, 100%=all plants dead
[6] = Brassica napus, 336 h, 35 g a.i./ha, spray at BBCH 12-13 with Mero 1 l/ha, visual scoring 14 days after application, 0%=no damage, 100%=all plants dead
[7] = Brassica napus, 336 h, 7 g a.i./ha, spray at BBCH 12-13 with Mero 1 l/ha, visual scoring 14 days after application, 0%=no damage, 100%=all plants dead
[8] = 15 g a.i./ha, spray at BBCH 12-13 with Mero 1 l/ha, visual scoring 14 days after application, 0%=no damage, 100%=all plants dead
[9] = 20 g a.i./ha, spray at BBCH 12-13 with Mero 1 l/ha, visual scoring 14 days after application, 0%=no damage, 100%=all plants dead
[10] = 30 g a.i./ha, spray at BBCH 12-13 with Mero 1 l/ha, visual scoring 14 days after application, 0%=no damage, 100%=all plants dead

SMILES: COc1cc(OC)nc(NC(=O)NS(=O)(=O)N(C)S(C)(=O)=O)n1 [Amidosulfuron]
- pest or weed control at 30 g/ha [1, 5]: 0%
- pest or weed control at 30 g/ha [2, 5]: 93%

SMILES: COc1nc(C)nc(NC(=O)NS(=O)(=O)c2ccccc2Cl)n1 [Chlorsulfuron]
- Herbicide injury on B. napus FM 202 ([1]; 9 g a.i./ha, spray at BBCH 12-13 with Mero 1 l/ha, visual scoring 14 days after application, 0%=no damage, 100%=all plants dead): 0%

SMILES: COc1cc(OC)nc(NC(=O)[N-]S(=O)(=O)c2ncccc2C2=NOCCO2)n1.[Na+] [Compound of formula (I)]
- growth of plants regenerated from clone FM202 in presence of the ALS inhibitor [3]: able to grow

SMILES: CCOc1ccccc1OS(=O)(=O)NC(=O)Nc1nc(OC)cc(OC)n1 [Ethoxysulfuron]
- Herbicide injury on B. napus FM 202 ([1]; 60 g a.i./ha, spray at BBCH 12-13 with Mero 1 l/ha, visual scoring 14 days after application, 0%=no damage, 100%=all plants dead): 0%

SMILES: COc1cc(OC)nc(NC(=O)NS(=O)(=O)c2cc(NC=O)ccc2C(=O)N(C)C)n1 [Foramsulfuron]
- times less sensitive to the ALS inhibitor herbicide compared to the wild type enzyme [4]: at least 1000 times
- pest or weed control at 35 g/ha [1, 6]: 0%
- pest or weed control at 35 g/ha [2, 6]: 75%

SMILES: COCc1cnc(C2=NC(C)(C(C)C)C(=O)N2)c(C(=O)O)c1 (stereo not drawn) [Imazamox]
- Herbicide injury on B. napus FM 202 ([1]; 40 g a.i./ha, spray at BBCH 12-13 with Mero 1 l/ha, visual scoring 14 days after application, 0%=no damage, 100%=all plants dead): 0%

SMILES: COc1nc(C)nc(NC(=O)NS(=O)(=O)c2cc(I)ccc2C(=O)O)n1 [Iodosulfuron]
- pest or weed control at 7 g/ha [1, 7]: 0%
- pest or weed control at 7 g/ha [2, 7]: 95%

SMILES: COc1cc(OC)nc(NC(=O)NS(=O)(=O)c2cc(CNS(C)(=O)=O)ccc2C(=O)O)n1 [Mesosulfuron]
- Herbicide injury on B. napus FM 202 [1, 8]: 0%
- Herbicide injury on B. napus SR002201 [2, 8]: 90%

SMILES: COc1nc(C)nc(=NC(=O)NS(=O)(=O)c2ccccc2C(=O)O)[nH]1 [Metsulfuron]
- pest or weed control at 8 g/ha ([1]; Brassica napus, 336 h, read-out: Herbicide injury on B. napus FM 202): 0%
- pest or weed control at 8 g/ha ([2]; Brassica napus, 336 h, read-out: Herbicide injury on B. napus SR002201): 93%

SMILES: COc1nn(C(=O)NS(=O)(=O)c2c(C(=O)O)csc2C)c(=O)n1C [Thiencarbazone]
- Herbicide injury on B. napus FM 202 [1, 9]: 0%
- Herbicide injury on B. napus SR002201 [2, 9]: 90%

SMILES: COc1nc(C)nc(N(C)C(=O)NS(=O)(=O)c2ccccc2C(=O)O)n1 [Tribenuron]
- Herbicide injury on B. napus FM 202 [1, 10]: 3%
- Herbicide injury on B. napus SR002201 [2, 10]: 95%

SMILES: Cc1cccc(C(=O)O)c1S(=O)(=O)NC(=O)Nc1nc(OCC(F)(F)F)nc(N(C)C)n1 [Triflusulfuron]
- Herbicide injury on B. napus FM 202 [1, 9]: 0%
- Herbicide injury on B. napus SR002201 [2, 9]: 65%
